The values that follow come from patent publication US8435976B2, “4-substituted pyridin-3-yl-carboxamide compounds and methods of use” (F. Hoffmann-La Roche, priority 2009, dated 2013).

For assay [1], the system named is multiple myeloma cell line MM.1S. The experiment in a line: MM.1S 3 day proliferation assay, single agents and combinations (Cell-Titer Glo). It is filed as cell-based. To be noted: FIG. 1. The procedure:
The in vitro potency of the combinations of formula I compounds with chemotherapeutic agents was measured by the cell proliferation assay of Example 11 and the results are compiled in Example iii. The CellTiter-Glo® Luminescent Cell Viability Assay (commercially available from Promega Corp., Madison, Wis.) is a homogeneous assay method based on the recombinant expression of Coleoptera luciferase (U.S. Pat. No. 5,583,024; U.S. Pat. No. 5,674,713; U.S. Pat. No. 5,700,670) and determines the number of viable cells in culture based on quantitation of the ATP present, an indicator of metabolically active cells (Crouch et al (1993) J. Immunol. Meth. 160:81-88; U.S. Pat. No. 6,602,677). The CellTiter-Glo® Assay was conducted in 96 or 384 well format, making it amenable to automated high-throughput screening (HTS) (Cree et al (1995) AntiCancer Drugs 6:398-404). The homogeneous assay procedure involves adding the single reagent (CellTiter-Glo® Reagent) directly to cells cultured in serum-supplemented medium. Cell washing, removal of medium and multiple pipetting steps are not required. The system detects as few as 15 cells/well in a 384-well format in 10 minutes after adding reagent and mixing.
The homogeneous “add-mix-measure” format results in cell lysis and generation of a luminescent signal proportional to the amount of ATP present. […] Viable cells are reflected in relative luminescence units (RLU). […] Data can be recorded by luminometer or CCD camera imaging device. The luminescence output is presented as relative light units (RLU), measured over time.
The combination index (CI) score is calculated by the Chou and Talalay method (Chou, T. and Talalay, P. (1984) Adv. Enzyme Regul. 22:27-55). […] The strength of synergy is assessed according to Chou and Talalay. […]
The in vitro cell survival and proliferation assay (Cell-Titer Glo, Promega) measured viable cells over varying inhibitor concentrations (10^−3 to 10 μMolar, Relative Units, wherein a Relative Unit equals 0.3 micromolar for Compound 3, 0.3 micromolar for Formula A, and 0.1 micromolar for Formula B). […]

Assay [2] deals with bone marrow aspirate samples from multiple myeloma patients. The assay is described as follows: Primary cancer cell isolates from bone marrow aspirates, apoptosis. The class given is cell-based, human. To be noted: 0.3 or 1.0 micromolar; two of four cases. The method, then: Shown in FIG. 2 are a summary of Combination Index values for Compound 3 in combination with different agents. The values shown were calculated at the ED50 of the dose response curves which were similar in nature to those exemplified in FIG. 1. Each dot in the plot represents the test results obtained with a different multiple myeloma cell line with a different combination of test agents, including Compound 3 plus a second agent as labeled on the abscissa. The horizontal line on the plot itself indicates the mean of all CI values for a given test agent. Combinations of Compound 3 with clinical standard of care chemotherapeutic agents including dexamethasone, lenalidomide, bortezomib, and melphalan produced variable results wherein CI values between about 0.1 and about 1 were obtained, with means generally greater than about 0.5. Compared to these clinically active agents, unexpectedly uniform and unexpectedly potent combination test results were obtained for Compound 3 in combination with Formula A, in which the majority of calculated CI values were less than about 0.2 and the mean across all cancer cell lines tested was about 0.2. In addition to these findings, bone marrow aspirate samples from multiple myeloma patients […] to test Formula A and Compound 3 singly and in combination on these primary cancer cell isolates.

Assay [3] deals with prostate cancer cell line PC3. The assay is described as follows: Cell Titer Glo proliferation and survival assay, PC3. To be noted: PC3, FIG. 5. It is filed as cell-based. The text has this: The results obtained here are representative of a subset of prostate cell lines tested.
For assay [4], the system named is RPMI 8226.x1 multiple myeloma xenografts. The assay is described as follows: RPMI 8226.x1 multiple myeloma xenograft. The class given is in vivo, SCID Beige mice. To be noted: Formula A 75 mg/kg po qd x21, day 27. The procedure:
(§1) The efficacy of the combinations of the invention may be measured in vivo by implanting allografts or xenografts of cancer cells in rodents and treating the tumor-bearing animals with the combinations. Variable results are to be expected depending on the cell line, the presence or absence of certain mutations in the tumor cells, the sequence of administration of a formula I compound and chemotherapeutic agent, dosing regimen, and other factors. Subject mice were treated with drug(s) or control (Vehicle) and monitored over several weeks or more to measure the time to tumor doubling, log cell kill, and tumor inhibition.
Dosing of all cohorts commenced on Day 0 when the mean tumor volume of all cohorts was between about 100 to 200 cubic millimeters.

Assay [5] relates to syngeneic A20 lymphoma tumors. The experiment in a line: Syngeneic A20 lymphoma tumor model. The settings on record: Compound 3 25 and 50 mg/kg or Formula A 75 mg/kg po qd x21. It is filed as in vivo, Balb/c mice. The method, then:
The efficacy of the combinations of the invention may be measured in vivo by implanting allografts or xenografts of cancer cells in rodents and treating the tumor-bearing animals with the combinations. […] Subject mice were treated with drug(s) or control (Vehicle) and monitored over several weeks or more to measure the time to tumor doubling, log cell kill, and tumor inhibition.
Dosing of all cohorts commenced on Day 0 when the mean tumor volume of all cohorts was between […]. […] At the conclusion of this study, femurs were collected and histological analysis of the bone marrow was conducted, and peripheral blood was collected for determination of blood cell counts.

Assay [6] relates to MM1.s multiple myeloma xenografts. The experiment in a line: MM1.s multiple myeloma xenograft. The settings on record: Formula A 75 mg/kg po qd, day 18; compared with Compound 3 50 mg/kg. It is filed as in vivo, SCID mice. The method, then:
as §1
Dosing of all cohorts commenced on Day 0 when the mean tumor volume of all cohorts was between about 200 to 300 cubic millimeters. […] Formula A was tested at as a single agent at a single dose level of 75 mg/kg for which a lesser TGI was obtained at day 18.

For another assay, the target named is BaF3 PIM1 cells (Homo sapiens, UniProt P11309). The assay is described as follows: BaF3 PIM1 cell proliferation (Cell Titer Glo). It is filed as cell-based. The settings on record: Table 3; read-out: BaF3-Pim1. A general note: Cellular ATP, detected with luciferase, serves as a proxy for viable cell number.
Sequence of BaF3 PIM1 cells (P11309 whole entry, change not shown): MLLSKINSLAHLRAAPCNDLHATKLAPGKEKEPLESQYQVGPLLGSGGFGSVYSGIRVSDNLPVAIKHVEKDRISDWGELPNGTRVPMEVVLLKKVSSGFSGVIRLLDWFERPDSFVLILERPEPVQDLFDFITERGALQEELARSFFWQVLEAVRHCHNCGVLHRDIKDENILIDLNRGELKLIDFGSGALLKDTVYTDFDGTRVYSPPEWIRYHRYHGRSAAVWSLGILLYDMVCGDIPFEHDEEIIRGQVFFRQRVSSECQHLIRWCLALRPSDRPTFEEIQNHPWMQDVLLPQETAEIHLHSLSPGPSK
The target in another assay is BaF3 PIM2 cells (Homo sapiens, UniProt Q9P1W9). The assay is described as follows: BaF3 PIM2 cell proliferation (Cell Titer Glo). The class given is cell-based. The settings on record: Table 3; read-out: BaF3-Pim2. In a few lines: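 BaF3 cells stably transfected with PIM2 were cultured in RPMI with 10% FBS, 2 mM L-Glutamine and 250 μg/mL G418, then plated at 5 k/well in 45 μL/well of a 384-well plate. Test compound was added at 5 μL/well, cells incubated overnight, and viability measured by luminescence after 30 minutes with Cell Titer Glo (50 μL/well).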
Sequence of BaF3 PIM2 cells (Q9P1W9 whole entry, change not shown): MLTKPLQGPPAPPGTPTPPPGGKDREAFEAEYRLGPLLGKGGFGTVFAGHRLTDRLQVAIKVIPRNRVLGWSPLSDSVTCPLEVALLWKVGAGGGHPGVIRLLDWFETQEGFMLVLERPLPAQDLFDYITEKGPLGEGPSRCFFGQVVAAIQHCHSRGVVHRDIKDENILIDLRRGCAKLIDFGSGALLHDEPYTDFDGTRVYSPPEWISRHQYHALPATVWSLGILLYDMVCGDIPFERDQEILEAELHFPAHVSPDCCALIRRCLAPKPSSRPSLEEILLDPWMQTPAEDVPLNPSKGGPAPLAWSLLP

The subject of another assay is MM1.S cells. The assay is described as follows: MM1.S cell proliferation, 72 hours (Cell Titer Glo). To be noted: Homo sapiens, Table 3, read-out: MM1.s. The class given is cell-based. In a few lines:
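BaF3 parental cells (2 k/well, with 2 ng/mL mIL-3) were treated overnight, and MM1.S cells (10 k/well) were treated for 72 h at 37 °C. Viability was read by CellTiter-Glo luminescence. IC50/EC50 values were calculated from the luminescence data.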

A further assay has as its system BaF3 parental cells. The assay is described as follows: BaF3 parental cell proliferation (Cell Titer Glo). It is filed as cell-based. To be noted: Mus musculus, Table 3. The procedure:
BaF3 parental line was obtained from the DSMZ repository. BaF3 lines transfected with PIM1 or PIM2 were generated. Mouse IL-3 was purchased from R&D Systems. G418 was purchased from Clontech. Media for BaF3 parental line contained RPMI, 10% FBS, 2 mM L-Glutamine, 2 ng/mL mIL-3. Media for BaF3 PIM1 & 2 lines contained RPMI, 10% FBS, 2 mM L-Glutamine, […]. Media for MM1.S line contained RPMI, 10% FBS, 2 mM L-Glutamine.
BaF3 parental cells, BaF3 PIM1 cells, BaF3 PIM2 cells, and MM1.S cells were seeded at 2 k/well, 5 k/well, 5 k/well, and 10 k/well respectively, in a 384-well plate, at 45 μL/well. Test compound was added at 5 μL/well. BaF3 cells (parental and transfected) were incubated overnight, while MM1.S cells were incubated for 72 hours at 37° C., 5% CO2. Cell Titer Glo Reagent (Promega) was added at 50 μL/well, the plates were incubated for 30 minutes, and their luminescence read on an HT Analyst. IC50/EC50 values for the test compound were calculated.

In a further assay the test system is EOL-1. The experiment in a line: EOL-1 cell assay. The class given is cell-based. The settings on record: Homo sapiens, EOL1; Table 3.
Assay [7] has as its system multiple myeloma cell line KMS11. The assay is described as follows: Cell Titer Glo proliferation and survival assay, KMS11 and other multiple myeloma cell lines. The class given is cell-based. The settings on record: Homo sapiens, KMS-11; single agent; ten multiple myeloma cell lines tested; read-out: IC50 against myeloma cell lines, single agent. From the text:
The results obtained here are representative of a total of ten multiple myeloma cell lines tested.

As to `CS(=O)(=O)N1CCN(Cc2cc3nc(-c4cccc5[nH]ncc45)nc(N4CCOCC4)c3s2)CC1` [Formula A, 4-(2-(1H-indazol-4-yl)-6-((4-(methylsulfonyl)piperazin-1-yl)methyl)thieno[3,2-d]pyrimidin-4-yl)morpholine, reference compound], the “lowest level reached by dose-response curve, of control value” in assay [1] is “about 0%”. Further, the “activity on primary cancer cell isolates” value in [2] is recorded as “only limited single agent activity”. Moreover, the IC50 (commonly the concentration that inhibits the measured activity by half) in assay [3] was about 300 nM. Besides, the “tumor growth inhibition (TGI)” value in assay [4] is 40%. The “effect on tumor growth, single agents” value in assay [5] is given as “no significant effect on tumor growth”. Besides, the “tumor growth inhibition (TGI), in words” value in [6] is listed as “lesser TGI”.
Consider `O=C(Nc1c[nH]c2ncccc12)c1cnn2ccc(NCCc3ccccc3)nc12` [Compound PIMi, 5-(phenethylamino)-N-(1H-pyrrolo[2,3-b]pyridine-3-yl)pyrazolo[1,5-a]pyrimidine-3-carboxamide, reference compound], for which the results for the GI50 on BaF3 PIM1 cells and on BaF3 PIM2 cells were 400 nM and over 20000 nM, respectively. For the same molecule, the EC50 in the assay on MM1.S cells is over 20000 nM. Besides, the IC50 in the assay with BaF3 parental cells is 12000 nM; in the assay with EOL-1 it was 400 nM; in [7], over 5000 nM.
Turning to `Cc1c(CN2CCN(C(=O)[C@H](C)O)CC2)sc2c(N3CCOCC3)nc(-c3cnc(N)nc3)nc12` [Formula B, (S)-1-(4-((2-(2-aminopyrimidin-5-yl)-7-methyl-4-morpholinothieno[3,2-d]pyrimidin-6-yl)methyl)piperazin-1-yl)-2-hydroxypropan-1-one], the “lowest level reached by dose-response curve, of control value” in assay [1] is given as “about 0%”.
